Results: PubChem BioAssay AID1259407 (Chemical Carcinogenesis Research Information System (CCRIS), 2018)
The source made the active and inactive calls. The rule behind the calls is not given here.

Test system: CCRIS mutagenicity, Ames/micronucleus/aberration tests
Assay: CCRIS mutagenicity studies
Conditions: Test System: AMES SALMONELLA TYPHIMURIUM, Method: PREINCUBATION

Measured: mutagenic call

C=CC(C)C#N (stereo not drawn)
inactive: Strain/Indicator: TA97, Metabolic Activation: HAMSTER, LIVER, S-9, AROCLOR 1254 (5 OR 30%) inactive; negative | Strain/Indicator: TA97, Metabolic Activation: HAMSTER, LIVER, S-9, AROCLOR 1254 (10%) inactive; negative | Strain/Indicator: TA97, Metabolic Activation: NONE inactive; negative | Strain/Indicator: TA97, Metabolic Activation: RAT, LIVER, S-9, AROCLOR 1254 (10%) inactive; negative | Strain/Indicator: TA97, Metabolic Activation: RAT, LIVER, S-9, AROCLOR 1254 (30%) inactive; negative | Strain/Indicator: TA98, Metabolic Activation: HAMSTER, LIVER, S-9, AROCLOR 1254 (10%) inactive; negative | Strain/Indicator: TA98, Metabolic Activation: HAMSTER, LIVER, S-9, AROCLOR 1254 (30%) inactive; negative | Strain/Indicator: TA98, Metabolic Activation: NONE inactive; negative | Strain/Indicator: TA98, Metabolic Activation: RAT, LIVER, S-9, AROCLOR 1254 (10%) inactive; negative | Strain/Indicator: TA98, Metabolic Activation: RAT, LIVER, S-9, AROCLOR 1254 (30%) inactive; negative | Strain/Indicator: TA100, Metabolic Activation: HAMSTER, LIVER, S-9, AROCLOR 1254 (10%) inactive; negative | Strain/Indicator: TA100, Metabolic Activation: HAMSTER, LIVER, S-9, AROCLOR 1254 (30%) inactive; negative | Strain/Indicator: TA100, Metabolic Activation: NONE inactive; negative | Strain/Indicator: TA100, Metabolic Activation: RAT, LIVER, S-9, AROCLOR 1254 (10%) inactive; negative | Strain/Indicator: TA100, Metabolic Activation: RAT, LIVER, S-9, AROCLOR 1254 (30%) inactive; negative | Strain/Indicator: TA1535, Metabolic Activation: HAMSTER, LIVER, S-9, AROCLOR 1254 (10%) inactive; negative | Strain/Indicator: TA1535, Metabolic Activation: HAMSTER, LIVER, S-9, AROCLOR 1254 (30%) inactive; negative | Strain/Indicator: TA1535, Metabolic Activation: NONE inactive; negative | Strain/Indicator: TA1535, Metabolic Activation: RAT, LIVER, S-9, AROCLOR 1254 (10%) inactive; negative | Strain/Indicator: TA1535, Metabolic Activation: RAT, LIVER, S-9, AROCLOR 1254 (30%) inactive; negative | Strain/Indicator: TA1537, Metabolic Activation: HAMSTER, LIVER, S-9, AROCLOR 1254 (30%) inactive; negative | Strain/Indicator: TA1537, Metabolic Activation: NONE inactive; negative | Strain/Indicator: TA1537, Metabolic Activation: RAT, LIVER, S-9, AROCLOR 1254 (30%) inactive; negative
